Measurements taken from patent US20090018162A1, “USE OF 6-(3-CHLORO-2-FLUOROBENZYL)-1-[(2S)-1-HYDROXY-3-METHYLBUTAN-2-YL]-7-METHOXY-4-OXO-1,4-DIHYDROQUINOLINE-3-CARBOXYLIC ACID OR SALT THEREOF FOR TREATING RETROVIRUS INFECTION” (priority 2006, published 2009).
Where two headings read alike, the source gives them in different places.

How the values were obtained:
[1] = test system: drug-resistant HIV-1 isolates; experiment: Anti-HIV efficacy in fresh human PBMCs, drug-resistant HIV-1 isolates; conditions: for IC50: Human immunodeficiency virus 1, PBMC, in Homo sapiens
human PBMCs [2] = experiment: MTS staining for PBMC viability (cytotoxicity); conditions: read-out: TC50, PBMCs, MTS
[3] = MTS staining for PBMC viability (cytotoxicity); conditions: human
HIV-1 clinical isolates [4] = experiment: microbe, parasite or virus in culture; conditions: Human immunodeficiency virus 1, PBMC
[5] = test system: recombinant HIV-1 clones (patient protease/RT sequences in HIV-1 NL4-3); experiment: microbe, parasite or virus in culture; format: cell-based; conditions: one experiment
[6] = test system: HIV-1 macrophage-tropic virus strains; experiment: microbe, parasite or virus in culture; conditions: in Homo sapiens
HIV-2 CDC 310319 [7] = experiment: microbe, parasite or virus in culture; conditions: Human immunodeficiency virus 2, PBMC
human PBMCs [8] = conditions: 7 days
[9] = MTS cytotoxicity in monocyte/macrophage cultures; format: cell-based; conditions: human, fresh adherent monocyte/macrophage cultures, HIV-infected, macrophages, MTS, read-out: TC50
Experimental: Anti-HIV Efficacy Evaluation in Fresh Human Monocyte/Macrophage. Monocytes/macrophages were allowed to adhere to the interior 60 wells of a 96 well flat bottomed plate for 2 to 18 hours at 37° C., 5% CO2. Following 6 to 14 days in culture, the monocyte/macrophage cultures were washed 3 times to remove any non-adherent cells and serially diluted test compounds were added followed by the addition of a pre-titered amount of HIV. Cultures were washed a final time by media removal 24 hours post infection, fresh compound added and the cultures continued for an additional six days. […] At assay termination, virus replication was measured by collecting cell-free supernatant samples which were analyzed for HIV p24 antigen content using a commercially available p24 ELISA assay (Coulter). […] MTS staining for PBMC viability to measure cytotoxicity. […] The mitochondrial enzymes of metabolically active cells metabolize MTS to yield a soluble formazan product. This allows the rapid quantitative analysis of cell viability and compound cytotoxicity. […] At termination of the assay, 20 μL of MTS reagent was added per well. The microtiter plates were then incubated 4-6 hrs at 37° C. The incubation intervals were chosen based on empirically determined times for optimal dye reduction. […] Data analysis.

[10] = test system: HIV-1 macrophage-tropic virus strains
HIV-2 CDC 310319 [11] = conditions: HIV-2 CDC 310319 in PBMCs
HIV-1 clinical isolates [12] = test system: HIV-1 clinical isolates

## COc1cc2c(cc1Cc1cccc(Cl)c1F)c(=O)c(C(=O)O)cn2[C@H](CO)C(C)C [Compound I, 6-(3-chloro-2-fluorobenzyl)-1-[(2S)-1-hydroxy-3-methylbutan-2-yl]-7-methoxy-4-oxo-1,4-dihydroquinoline-3-carboxylic acid]
[1]; HIV-1 52-52 in PBMCs
  TI (TC50/IC50): >588.2
[1]; HIV-1 144-44 in PBMCs
  TI (TC50/IC50): >138.89
[1]; HIV-1 1002-60 in PBMCs
  TI (TC50/IC50): >769.2
[1]; HIV-1 1064-52 in PBMCs
  TI (TC50/IC50): >158.7
[1]; HIV-1 MDR 769 in PBMCs
  TI (TC50/IC50): >555.6
[1]; HIV-1 MDR 807 in PBMCs
  TI (TC50/IC50): >88.5
[1]; HIV-1 MDR 1385 in PBMCs
  TI (TC50/IC50): >5000.0
[1]; HIV-1 MDR 3761 in PBMCs
  TI (TC50/IC50): >137.0
[1]; HIV-1 52-52 (protease-inhibitor resistant) in PBMCs
  IC50: 0.17 nM
[1]; against several viruses (e.g., MDR 1385, MDR 3761) in PBMCs
  IC50: < 1 nM
[1]; multi-drug-resistant HIV-1 MDR 769 in PBMCs
  IC50: 0.18 nM
[1]; multi-drug-resistant HIV-1 MDR 807 in PBMCs
  IC50: 1.13 nM
[1]; multi-drug-resistant HIV-1 MDR 1385 in PBMCs
  IC50: 0.02 nM
[1]; multi-drug-resistant HIV-1 MDR 3761 in PBMCs
  IC50: 0.73 nM
Human PBMCs [2]; 52-52 assay
  CC50: > 100 nM
Human PBMCs [2]; 96USHIPS7 assay
  CC50: > 100 nM
Human PBMCs [2]; 144-44 assay
  CC50: > 100 nM
Human PBMCs [2]; 1002-60 assay
  CC50: > 100 nM
Human PBMCs [2]; 1064-52 assay
  CC50: > 100 nM
Human PBMCs [2]; BFC01 assay
  CC50: > 100 nM
Human PBMCs [2]; BR/92/025 assay
  CC50: > 100 nM
Human PBMCs [2]; BR/93/017 assay
  CC50: > 100 nM
Human PBMCs [2]; BR/93/020 assay
  CC50: > 100 nM
Human PBMCs [2]; BR/93/022 assay
  CC50: > 100 nM
Human PBMCs [2]; CMU 02 assay
  CC50: > 100 nM
Human PBMCs [2]; HIV-2 CDC 310319 assay
  CC50: > 100 nM
Human PBMCs [2]; JV 1083 assay
  CC50: > 100 nM
Human PBMCs [2]; RW/92/016 assay
  CC50: > 100 nM
Human PBMCs [2]; UG/92/046 assay
  CC50: > 100 nM
[3]
  CC50 at 7 days: > 100 nM
HIV-1 clinical isolates [4]; HIV-1 96USHIPS7 (subtype /B, R5) in PBMCs
  IC50: 0.26 nM
HIV-1 clinical isolates [4]; HIV-1 BR/92/021 (subtype B/B, R5) in PBMCs
  IC50: 0.76 nM
HIV-1 clinical isolates [4]; HIV-1 BR/93/020 (subtype F/F, R5/X4) in PBMCs
  IC50: 0.74 nM
HIV-1 clinical isolates [4]; HIV-1 CMU 02 (subtype /EA, X4) in PBMCs
  IC50: 1.26 nM
HIV-1 clinical isolates [4]; HIV-1 JV 1083 (subtype /G, R5) in PBMCs
  IC50: 0.35 nM
HIV-1 clinical isolates [4]; HIV-1 RW/92/016 (subtype A/A, R5) in PBMCs
  IC50: 0.41 nM
HIV-1 clinical isolates [4]; HIV-1 UG/92/046 (subtype D/D, X4) in PBMCs
  IC50: 0.5 nM
[5]; Human immunodeficiency virus 1, NL43, 120 recombinant clones
  EC50: 1.06 nM
[5]; Human immunodeficiency virus 1, NL43, Reference clone (NL4-3), ten replicates
  EC50: 1.11 nM
[6]; Human immunodeficiency virus 1, BAL, Macrophage, HIV-1 Ba-L in macrophages
  IC50: 0.67 nM
[6]; Human immunodeficiency virus 1, Macrophage, HIV-1 ADA in macrophages
  IC50: 0.07 nM
[6]; Human immunodeficiency virus 1, Macrophage, HIV-1 JR-CSF in macrophages
  IC50: 0.31 nM
HIV-2 CDC 310319 [7]
  IC50: 0.53 nM
Human PBMCs [8]
  CC50: > 100 nM
[9]; ADA assay
  CC50 at 7 days: > 500 nM
[9]; Ba-L assay
  CC50 at 7 days: > 500 nM
[9]; JR-CSF assay
  CC50 at 7 days: > 100 nM
[10]; HIV-1 ADA in macrophages
  TI (TC50/IC50): >7142.9
[10]; HIV-1 Ba-L in macrophages
  TI (TC50/IC50): >746.3
[10]; HIV-1 JR-CSF in macrophages
  TI (TC50/IC50): >322.6
HIV-2 CDC 310319 [11]
  TI (TC50/IC50): >188.7
HIV-1 clinical isolates [12]; HIV-1 96USHIPS7 in PBMCs
  TI (TC50/IC50): >384.6
HIV-1 clinical isolates [12]; HIV-1 BFC01 in PBMCs
  TI (TC50/IC50): >85.5
HIV-1 clinical isolates [12]; HIV-1 BR/92/021 in PBMCs
  TI (TC50/IC50): >131.6
HIV-1 clinical isolates [12]; HIV-1 BR/92/025 in PBMCs
  TI (TC50/IC50): >1000.0
HIV-1 clinical isolates [12]; HIV-1 BR/93/017 in PBMCs
  TI (TC50/IC50): >555.6
HIV-1 clinical isolates [12]; HIV-1 BR/93/020 in PBMCs
  TI (TC50/IC50): >135.1
HIV-1 clinical isolates [12]; HIV-1 BR/93/022 in PBMCs
  TI (TC50/IC50): >88.5
HIV-1 clinical isolates [12]; HIV-1 CMU 02 in PBMCs
  TI (TC50/IC50): >79.4
HIV-1 clinical isolates [12]; HIV-1 JV 1083 in PBMCs
  TI (TC50/IC50): >285.7
HIV-1 clinical isolates [12]; HIV-1 RW/92/016 in PBMCs
  TI (TC50/IC50): >243.9
HIV-1 clinical isolates [12]; HIV-1 UG/92/046 in PBMCs
  TI (TC50/IC50): >200.0
